According to EP4813991A1 (iLeadBMS Co., Ltd., priority 2023, dated 2025):

What was measured:
A427 cells = assay: Lung cancer cell proliferation inhibitory activity, A427; assay type: cell-based; details: Homo sapiens, A-427; 72 hours, Cell Counting Kit-8, relative IC50
Procedure: (§1) Experiments were performed using three types of lung cancer cell lines to measure the cell proliferation inhibitory ability of the compounds of the present invention. NCI-H23 and NCI-H358 cells were dispensed into a 96-well plate at 100 µL of cell suspension per well using RPM11640 medium containing 10 % FBS and 1 % PS, followed by incubation in a cell incubator at 37 °C and 5 % CO2. A427 cells were dispensed into a 96-well plate at 100 µL of cell suspension per well using DMEM medium containing 10 % FBS and 1 % PS, followed by incubation in a cell incubator at 37 °C and 5 % CO2. The next day, each Example compound (such as Example 8) dissolved and diluted in DMSO across 10 concentration ranges and a DMSO control group were treated on the cells for 72 hours. After completion of the compound treatment, 10 µL of Cell Counting Kit-8 (Dojindo) reagent was added to each well of the 96-well plate, followed by incubation for 2 hours. After inserting the 96-well plate into an Envision plate reader […], luminescence signals were measured. Relative IC50 values were calculated by fitting a dose-response curve using Graphpad PRISM software.
(§2) The lung cancer cell proliferation inhibitory activities of the Example compounds measured by the method described above were evaluated according to the following criteria, and the results are presented in Table 17.

NCI-H23 = assay: Lung cancer cell proliferation inhibitory activity, NCI-H23; assay type: cell-based; details: Homo sapiens, 72 hours, Cell Counting Kit-8, relative IC50
Procedure: as §1, §2

SNU601 = assay: Gastric cancer cell proliferation inhibitory activity (Cell Counting Kit-8), SNU601; assay type: cell-based; details: SNU-601; 72 hours, Cell Counting Kit-8, relative IC50
Procedure: (§3) Experiments were performed using six types of gastric cancer cell lines to measure the cell proliferation inhibitory ability of each Example compound. NCI-N87, SNU601, KATO-III, MKN1, and AGS cells were dispensed into a 96-well plate at 100 µL of cell suspension per well using RPMI1640 medium containing 10 % FBS and 1 % PS, followed by incubation in a cell incubator at 37 °C and 5 % CO2. HS746T cells were dispensed into a 96-well plate at 100 µL of cell suspension per well using DMEM medium containing 10 % FBS and 1 % PS, followed by incubation in a cell incubator at 37 °C and 5 % CO2. The next day, each Example compound dissolved and diluted in DMSO across 10 concentration ranges and a DMSO control group were treated on the cells for 72 hours. After completion of the compound treatment, 10 µL of Cell Counting Kit-8 (Dojindo) reagent was added to each well of the 96-well plate, followed by incubation for 2 hours. […] were measured after inserting the 96-well plate into an Envision plate reader […]. Relative IC50 values were calculated by fitting a dose-response curve using Graphpad PRISM software.
The gastric cancer cell proliferation inhibitory activities of the Example compounds measured by the method described above were evaluated according to the following criteria, and the results are presented in Table 20.

HCT116 = assay: Colorectal cancer cell proliferation inhibitory activity, HCT116; assay type: cell-based; details: Homo sapiens, HCT-116; 72 hours, Cell Counting Kit-8, relative IC50
Procedure: as §3, with “seven” for “six”, “colorectal” for “gastric”, “DLD-1, LoVo, SW620, SW480, HCT116, HCT15,” for “NCI-N87, SNU601, KATO-III, MKN1,”, “HT29” for “AGS”, “RPMI1640” for “RPMI1640 medium containing 10 % FBS and 1 % PS, followed by incubation in a cell incubator at 37 °C and 5 % CO2. HS746T cells were dispensed into a 96-well plate at 100 µL of cell suspension per well using DMEM”
(§4) The colorectal cancer cell proliferation inhibitory activities of the Example compounds measured by the method described above were evaluated according to the following criteria, and the results are presented in Table 19.

HT29 cells = assay: Colorectal cancer cell proliferation inhibitory activity, HT29; assay type: cell-based; details: Homo sapiens, HT-29; 72 hours, Cell Counting Kit-8, relative IC50
Procedure: as §3, with “seven” for “six”, “colorectal” for “gastric”, “DLD-1, LoVo, SW620, SW480, HCT116, HCT15,” for “NCI-N87, SNU601, KATO-III, MKN1,”, “HT29” for “AGS”, “RPMI1640” for “RPMI1640 medium containing 10 % FBS and 1 % PS, followed by incubation in a cell incubator at 37 °C and 5 % CO2. HS746T cells were dispensed into a 96-well plate at 100 µL of cell suspension per well using DMEM”
as §4

AGS gastric cancer cells = assay: Zebrafish xenograft gastric cancer model (AGS); assay type: in vivo
Procedure: (§5) Transgenic Tg(fli1:EGFP)y1 zebrafish embryos were cultured in E3 embryo medium with 0.2 mM 1-phenyl-2-thiourea (PTU) at 28 °C for 48 hours. HCC70 breast cancer cells were cultured using RPMI-1640 medium supplemented with 10 % FBS, and AGS gastric cancer cells were cultured using F-12K medium supplemented with 10 % FBS. Each cell was collected, labeled with Dil red fluorescent dye, and then subcutaneously transplanted into 2-day-old zebrafish embryos. After selecting embryos with tumors, they were classified into experimental groups (20 embryos per group), and each Example compound dissolved and diluted in DMSO across 2 to 3 concentration ranges, a DMSO control group, or a comparative compound were added, followed by incubation at 35.5 °C for 48 hours or 72 hours. In the breast cancer model, primary tumors were collected immediately after transplantation (Day 0) and after 48 hours (Day 2), and in the gastric cancer model, primary tumors were obtained immediately after transplantation (Day 0) and after 72 hours (Day 3). Images of the collected tumors were analyzed for reduction in tumor size compared to the DMSO control group using image software, and the number of disseminated cancer cells after 3 days was manually counted through the captured images, with the results shown in FIGs. 6, 7, and 8. […]

LoVo = assay: Colorectal cancer cell proliferation inhibitory activity, LoVo; assay type: cell-based; details: Homo sapiens, 72 hours, Cell Counting Kit-8, relative IC50
Procedure: as §3, with “seven” for “six”, “colorectal” for “gastric”, “DLD-1, LoVo, SW620, SW480, HCT116, HCT15,” for “NCI-N87, SNU601, KATO-III, MKN1,”, “HT29” for “AGS”, “RPMI1640” for “RPMI1640 medium containing 10 % FBS and 1 % PS, followed by incubation in a cell incubator at 37 °C and 5 % CO2. HS746T cells were dispensed into a 96-well plate at 100 µL of cell suspension per well using DMEM”
as §4

[1] = tested on: HCC70 breast cancer cells; assay: Zebrafish xenograft breast cancer model (HCC70); assay type: in vivo; details: 48 hours, compared to the vehicle, FIG. 6
Procedure: as §5

Q: How did the IC50 (A427 cells) turn out when CN1CCN(c2cc(NCc3nc4ccc(F)c(F)c4[nH]3)c3ncc(C(F)(F)F)n3n2)CC1 [Example 8, N-((6,7-difluoro-1H-benzo[d]imidazol-2-yl)methyl)-6-(4-methylpiperazin-1-yl)-3-(trifluoromethyl)imidazo[1,2-b]pyridazin-8-amine] was run?
A: Its IC50 is ≤ 200 nM.

Q: And the IC50 (NCI-H23)?
A: Its IC50 is ≤ 200 nM.

Q: What about the IC50 (SNU601) of the same compound?
A: The IC50 was ≤ 200 nM.

Q: What about the IC50 (HCT116) of the same compound?
A: Its IC50 is ≤ 200 nM.

Q: What about the IC50 (HT29 cells) of the same compound?
A: The IC50 was ≤ 200 nM.

Q: What about the “number of metastatic gastric cancer cells” value (AGS gastric cancer cells; 0.1 µM, compared to 1 mM of 5-FU, FIG. 8) of the same compound?
A: The value was “significant reduction in the number of metastatic gastric cancer cells”.

Q: And the “reduction in tumor size” value (AGS gastric cancer cells; 72 hours, compared to the vehicle, FIG. 7)?
A: The value was “dose-dependent reduction in tumor size”.

Q: What about the IC50 (LoVo) of the same compound?
A: Its IC50 is ≤ 200 nM.

Q: Which “reduction in tumor size” value [1] does the source give for N#CC1CN(c2cc(NCc3nc4cc(Cl)c(Cl)cc4[nH]3)c3ncc(C(F)(F)F)n3n2)C1 [Example 30, 1-(8-(((5,6-dichloro-1H-benzol[d]imidazol-2-yl)methyl)amino)-3-(trifluoromethyl)imidazo[1,2-b]pyridazin-6-yl)azetidine-3-carbonitrile] here?
A: The value was “dose-dependent reduction in tumor size”.
